Results from ChEMBL document CHEMBL1141589, “Synthesis and biological evaluation of NO-donor-tacrine hybrids as hepatoprotective anti-Alzheimer drug candidates” (J Med Chem, 2008).

Legend:
Cholinesterase = Cholinesterase (Homo sapiens, UniProt P06276)
Description: Inhibition of BuChE by Ellman's assay

Acetylcholinesterase = Acetylcholinesterase (Homo sapiens, UniProt P22303); assay: Inhibition of AChE by Ellman's assay
Artery = assay: tissue or blood; conditions: Sus scrofa
Description: Vasorelaxation activity in PGF2-alpha-precontracted pig pulmonary artery

Acetylcholinesterase, sequence (P22303 whole entry): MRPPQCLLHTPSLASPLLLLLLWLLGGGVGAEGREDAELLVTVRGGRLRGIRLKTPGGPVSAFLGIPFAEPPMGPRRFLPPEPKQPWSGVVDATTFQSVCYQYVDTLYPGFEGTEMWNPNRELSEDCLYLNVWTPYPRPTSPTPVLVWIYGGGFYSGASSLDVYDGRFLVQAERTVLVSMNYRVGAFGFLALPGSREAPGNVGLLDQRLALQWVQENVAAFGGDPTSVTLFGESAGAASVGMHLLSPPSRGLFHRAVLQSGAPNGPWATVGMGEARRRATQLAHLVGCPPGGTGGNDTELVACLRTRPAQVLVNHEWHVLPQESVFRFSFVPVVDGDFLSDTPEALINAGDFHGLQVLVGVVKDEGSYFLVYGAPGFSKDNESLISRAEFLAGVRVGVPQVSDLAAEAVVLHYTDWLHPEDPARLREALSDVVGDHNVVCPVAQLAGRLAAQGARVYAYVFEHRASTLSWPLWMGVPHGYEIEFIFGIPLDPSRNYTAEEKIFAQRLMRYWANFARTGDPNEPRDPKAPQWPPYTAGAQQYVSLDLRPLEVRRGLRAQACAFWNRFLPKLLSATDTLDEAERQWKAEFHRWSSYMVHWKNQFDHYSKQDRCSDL
Cholinesterase, sequence (P06276 whole entry): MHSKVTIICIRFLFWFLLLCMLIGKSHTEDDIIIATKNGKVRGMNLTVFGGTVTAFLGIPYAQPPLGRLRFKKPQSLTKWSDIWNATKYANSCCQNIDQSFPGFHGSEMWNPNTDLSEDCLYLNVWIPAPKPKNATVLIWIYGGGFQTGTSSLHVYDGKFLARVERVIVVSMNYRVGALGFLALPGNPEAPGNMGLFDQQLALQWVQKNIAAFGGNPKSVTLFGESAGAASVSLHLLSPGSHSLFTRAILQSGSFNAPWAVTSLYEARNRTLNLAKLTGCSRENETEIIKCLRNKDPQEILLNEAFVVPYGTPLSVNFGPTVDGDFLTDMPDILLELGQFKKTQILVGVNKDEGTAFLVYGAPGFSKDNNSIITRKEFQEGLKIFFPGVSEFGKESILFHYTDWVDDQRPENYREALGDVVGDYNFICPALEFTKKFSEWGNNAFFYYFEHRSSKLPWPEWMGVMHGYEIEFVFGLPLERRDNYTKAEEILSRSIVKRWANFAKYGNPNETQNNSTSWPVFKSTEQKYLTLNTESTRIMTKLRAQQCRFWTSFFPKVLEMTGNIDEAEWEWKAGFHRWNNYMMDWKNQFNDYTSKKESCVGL

| SMILES | IC50 (Cholinesterase) | IC50 (Acetylcholinesterase) | EC50 (Artery) |
| --- | --- | --- | --- |
| O=[N+]([O-])OCCCCCCNCCCCNc1c2c(nc3ccccc13)CCCC2 | 0.0108 µM | 0.0181 µM | – |
| O=C(CO/N=[N+](\[O-])N1CCCC1)NCCCCNc1c2c(nc3ccccc13)CCCC2 | 0.041 µM | 0.0507 µM | – |
| O=[N+]([O-])OCCCCCCNCCCNc1c2c(nc3ccccc13)CCCC2 | 0.0217 µM | 0.0063 µM | – |
| O=C(CCO[N+](=O)[O-])NCCCNc1c2c(nc3ccccc13)CCCC2 | 0.028 µM | 0.093 µM | – |
| O=C(CO[N+](=O)[O-])NCCCNc1c2c(nc3ccccc13)CCCC2 | 0.0135 µM | 0.0282 µM | 3.68 µM |
| CC(C)(CO[N+](=O)[O-])C(=O)NCCCNc1c2c(nc3ccccc13)CCCC2 | 0.0055 µM | 0.0695 µM | – |
| O=[N+]([O-])OCCCNCCCNc1c2c(nc3ccccc13)CCCC2 | 0.0055 µM | 0.0064 µM | – |
| CC(C)(C)C(=O)NCCCCNc1c2c(nc3ccccc13)CCCC2 | 0.0365 µM | 0.0216 µM | – |
| CC(C)(CO[N+](=O)[O-])C(=O)NCCCCNc1c2c(nc3ccccc13)CCCC2 | 0.0073 µM | 0.226 µM | 10.5 µM |
| O=[N+]([O-])OCCNCCCNc1c2c(nc3ccccc13)CCCC2 | 0.0052 µM | 0.01 µM | – |
| O=C(CCO[N+](=O)[O-])NCCCCNc1c2c(nc3ccccc13)CCCC2 | 0.0151 µM | 0.0457 µM | – |
| O=C(CO/N=[N+](\[O-])N1CCCC1)NCCCNc1c2c(nc3ccccc13)CCCC2 | 0.0153 µM | 0.0355 µM | 22.5 µM |
| O=C(CO[N+](=O)[O-])NCCCCNc1c2c(nc3ccccc13)CCCC2 | 0.0121 µM | 0.0226 µM | – |
| O=[N+]([O-])OCCNCCCCNc1c2c(nc3ccccc13)CCCC2 | 0.0138 µM | 0.0111 µM | – |
| O=[N+]([O-])OCCCNCCCCNc1c2c(nc3ccccc13)CCCC2 | 0.0099 µM | 0.0056 µM | 8.8 µM |
| O=[N+]([O-])O[C@H]1CO[C@H]2[C@@H]1OC[C@H]2O[N+](=O)[O-] [ISOSORBIDE DINITRATE] | – | – | 0.42 µM |
